# Assay results reported in patent publication US10899738B2 (THE REGENTS OF THE UNIVERSITY OF MICHIGAN, priority 2016, dated 2021).
# Where two headings read alike, the source gives them in different places.
# How the values were obtained:
# [1] = Cell growth inhibition, CellTiter-Glo Luminescent Cell Viability Assay; type: cell-based
# Summary of the method: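 Cells seeded at 2,000/well with serially diluted compound and cultured 4 days at 37 °C, 5% CO2. Viability read by CellTiter-Glo luminescence; IC50 derived from dose-response.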
# menin protein = menin protein (Homo sapiens (Human), UniProt O00255); test: biochemical; type: binding; conditions: FP competitive binding; menin protein 4 nM, FAM-MM2 probe 2 nM; read-out: Menin Binding Affinity IC50
# Summary of the method: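 Competitive fluorescence polarization assay using FAM-labelled MLL1 peptide probe FAM-MM2 (2 nM final) preincubated with menin (4 nM final) in PBS with 0.02% bovine γ-globulin, 4% DMSO and 0.01% Triton X-100. Compounds were added and incubated 30 min at room temperature. IC50 came from nonlinear regression of competition curves, with Ki also derived.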
# [2] = MOLM-13, 96 h, MOLM13 cells, 4 days, CellTiter-Glo, read-out: Cell Growth Inhibition IC50 (μM) MOLM13
# [3] = MV4-11, 96 h, MV4, 11 cells, 4 days, CellTiter-Glo, read-out: Cell Growth Inhibition IC50 (μM) MV4, 11
# [4] = MOLM-13, 96 h, read-out: Cell Growth Inhibition IC50 (μM) MOLM13, MOLM13 cells, 4 days, CellTiter-Glo
# [5] = MV4-11, 96 h, read-out: Cell Growth Inhibition IC50 (μM) MV4, 11, MV4, 11 cells, 4 days, CellTiter-Glo
# Chain of menin protein (O00255 whole entry): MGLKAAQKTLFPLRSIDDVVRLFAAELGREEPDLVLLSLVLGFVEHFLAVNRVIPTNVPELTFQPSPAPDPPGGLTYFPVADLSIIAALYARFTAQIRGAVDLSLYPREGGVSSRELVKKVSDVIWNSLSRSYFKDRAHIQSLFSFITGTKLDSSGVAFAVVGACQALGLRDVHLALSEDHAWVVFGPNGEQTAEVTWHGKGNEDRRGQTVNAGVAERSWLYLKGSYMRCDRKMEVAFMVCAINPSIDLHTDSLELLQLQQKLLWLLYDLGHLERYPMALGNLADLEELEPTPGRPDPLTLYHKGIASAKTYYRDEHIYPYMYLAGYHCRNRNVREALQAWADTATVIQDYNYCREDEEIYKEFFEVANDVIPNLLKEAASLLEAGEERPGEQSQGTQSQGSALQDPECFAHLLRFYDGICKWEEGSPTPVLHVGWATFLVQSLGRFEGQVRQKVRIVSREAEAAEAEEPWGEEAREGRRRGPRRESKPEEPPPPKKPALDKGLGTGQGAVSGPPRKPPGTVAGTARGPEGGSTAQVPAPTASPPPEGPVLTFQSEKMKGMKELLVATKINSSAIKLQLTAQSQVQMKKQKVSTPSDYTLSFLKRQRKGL
SMILES,"IC50 [1, 2]","IC50 [1, 3]",IC50 (menin protein),"IC50 [1, 4]","IC50 [1, 5]"
"CCc1cnccc1S(=O)(=O)c1ccc(N2CC(CN3CCC(C4(C5CCCC5)CN(CC)Cc5ccccc54)CC3)C2)cc1 (stereo not drawn) [compound 156, 4-cyclopentyl-2-ethyl-4-(1-((1-(4-((3-ethylpyridin-4-yl)sulfonyl)phenyl)azetidin-3-yl)methyl)piperidin-4-yl)-1,2,3,4-tetrahydroisoquinoline]",1.8 µM,0.654 µM,8 nM,,
"CC(=O)N[C@H]1CCC[C@@H]1C(C#N)(c1ccccc1)C1CCN(CC2CN(c3ccc(S(=O)(=O)C4CC4)cc3)C2)CC1 (mixture of isomers) [compound 281, rac-N-((1S,2R)-2-(cyano(1-((1-(4-(cyclopropylsulfonyl)phenyl)azetidin-3-yl)methyl)piperidin-4-yl)(phenyl)methyl)cyclopentyl) acetamide]",,,29 nM,2.35 µM,0.55 µM
"O=S(=O)(c1ccncc1)c1ccc(N2CC(CN3CCC(C4(C5CCCC5)CNCc5ccccc54)CC3)C2)cc1 (stereo not drawn) [compound 51, 4-cyclopentyl-4-(1-((1-(4-(pyridin-4-ylsulfonyl)phenyl)azetidin-3-yl)methyl)piperidin-4-yl)-1,2,3,4-tetrahydroisoquinoline]",1.46 µM,0.67 µM,8 nM,,
"c1cnc(N2CC(CN3CCC(C4(C5CCCC5)NCCc5ccccc54)CC3)C2)nc1 (stereo not drawn) [compound 111, 1-cyclopentyl-1-(1-((1-(pyrimidin-2-yl)azetidin-3-yl)methyl)piperidin-4-yl)-1,2,3,4-tetrahydroisoquinoline]",96.2 µM,14.4 µM,46200 nM,,
"CCN1Cc2ccccc2C(C2CCCC2)(C2CCN(CC3CN(c4ccc(S(=O)(=O)C5CCCC5)cc4)C3)CC2)C1 (stereo not drawn) [compound 142, 4-cyclopentyl-4-(1-((1-(4-(cyclopentylsulfonyl)phenyl)azetidin-3-yl)methyl)piperidin-4-yl)-2-ethyl-1,2,3,4-tetrahydroisoquinoline]",3.2 ± 0.3 µM,0.979 ± 0.335 µM,8 nM,,
"COC(=O)N[C@H]1CCC[C@@H]1C(Cn1ccnc1)(c1ccccc1)C1CCN(CC2CN(c3ccc(S(=O)(=O)c4cnn(C)c4)cc3)C2)CC1 (mixture of isomers) [compound 392, methyl rac-((1S,2R)-2-(2-(1H-imidazol-1-yl)-1-(1-((1-(4-((1-methyl-1H-pyrazol-4-yl)sulfonyl)phenyl)azetidin-3-yl)methyl)piperidin-4-yl)-1-phenylethyl)cyclopentyl) carbamate]",,,7 nM,0.76 ± 0.32 µM,0.084 ± 0.032 µM
"O=S(=O)(c1ccncc1)c1ccc(N2CC(CN3CCC(C4(C5CCCC5)NCCc5ccccc54)CC3)C2)cc1 (stereo not drawn) [compound 151, 1-cyclopentyl-1-(1-((1-(4-(pyridin-4-ylsulfonyl)phenyl)azetidin-3-yl)methyl)piperidin-4-yl)-1,2,3,4-tetrahydroisoquinoline]",0.627 µM,1.3 µM,15 nM,,
"CN1Cc2ccccc2C(C2CCN(CC3CN(c4ccc(S(=O)(=O)c5ccncc5)cc4)C3)CC2)([C@H]2CCC[C@@H]2OC(N)=O)C1 (mixture of isomers) [compound 219, rac-(1S,2R)-2-(2-methyl-4-(1-((1-(4-(pyridin-4-ylsulfonyl)phenyl)azetidin-3-yl)methyl)piperidin-4-yl)-1,2,3,4-tetrahydroisoquinolin-4-yl)cyclopentyl carbamate]",,,3 nM,0.236 µM,0.074 ± 0.011 µM
"CCN1Cc2ccccc2C(C2CCCC2)(C2CCN(CC3CN(c4ccc(S(=O)(=O)C5CC5)cc4)C3)CC2)C1 (stereo not drawn) [compound 137, 4-cyclopentyl-4-(1-((1-(4-(cyclopropylsulfonyl)phenyl)azetidin-3-yl)methyl)piperidin-4-yl)-2-ethyl-1,2,3,4-tetrahydroisoquinoline]",1.9 ± 0.7 µM,1 ± 0.2 µM,8 nM,,
"CNC(=O)O[C@H]1CCC[C@@H]1C(C#N)(c1ccccc1)C1CCN(CC2CN(c3ccc(S(=O)(=O)c4ccn(C)n4)cc3)C2)CC1 (mixture of isomers) [compound 230, rac-(1S,2R)-2-(cyano(1-((1-(4-((1-methyl-1H-pyrazol-3-yl)sulfonyl)phenyl)azetidin-3-yl)methyl)piperidin-4-yl)(phenyl)methyl) cyclopentyl methylcarbamate]",,,7 nM,0.25 µM,0.092 µM
"CC(C)N1Cc2ccccc2C(C2CCCC2)(C2CCN(CC3CN(c4ccc(S(=O)(=O)c5ccncc5)cc4)C3)CC2)C1 (stereo not drawn) [compound 48, 4-cyclopentyl-2-isopropyl-4-(1-((1-(4-(pyridin-4-ylsulfonyl)phenyl)azetidin-3-yl)methyl)piperidin-4-yl)-1,2,3,4-tetrahydroisoquinoline]",2.8 µM,0.908 µM,7 nM,,
"COC(=O)N[C@H]1CCC[C@@H]1C(C#N)(c1ccccc1)C1CCN(CC2CN(c3ccc(S(=O)(=O)c4ccccc4)cc3)C2)CC1 (mixture of isomers) [compound 347, methyl (rac-(1S,2R)-2-(cyano(phenyl)(1-((1-(4-(phenylsulfonyl)phenyl)azetidin-3-yl)methyl)piperidin-4-yl)methyl)cyclopentyl) carbamate]",,,14 nM,0.44 µM,0.36 µM
"CCN1Cc2ccccc2C(C2CCN(CC3CN(c4ccc(S(=O)(=O)c5ccn(C)c5)cc4)C3)CC2)([C@H]2CCC[C@@H]2NC(=O)NC)C1 (mixture of isomers) [compound 375, rac-1-((1S,2R)-2-(2-ethyl-4-(1-((1-(4-((1-methyl-1H-pyrrol-3-yl)sulfonyl)phenyl)azetidin-3-yl)methyl)piperidin-4-yl)-1,2,3,4-tetrahydroisoquinolin-4-yl)cyclopentyl)-3-methylurea]",,,11 nM,1.73 µM,0.39 µM
"O=S(=O)(c1ccccc1)c1ccc(N2CC(CN3CCC(C(CN4CCCC4)(c4ccccc4)[C@H]4C=CCC4)CC3)C2)cc1 (stereo partly drawn) [compound 356, 4-(1-((R)-cyclopent-2-en-1-yl)-1-phenyl-2-(pyrrolidin-1-yl)ethyl)-1-((1-(4-(phenylsulfonyl)phenyl)azetidin-3-yl)methyl)piperidine]",0.69 µM,0.71 µM,22 nM,,
"CC(=O)O[C@H]1CCC[C@@H]1C(C#N)(c1ccccc1)C1CCN(CC2CN(c3ccc(S(=O)(=O)c4ccncc4)cc3)C2)CC1 (mixture of isomers) [compound 185, rac-(1S,2R)-2-(cyano(phenyl)(1-((1-(4-(pyridin-4-ylsulfonyl)phenyl)azetidin-3-yl)methyl)piperidin-4-yl)methyl)cyclopentyl acetate]",,,7 nM,0.783 ± 0.474 µM,0.624 ± 0.165 µM
"CCN1Cc2ccccc2C(C2CCCC2)(C2CCN(CC3CN(c4ccc(S(=O)(=O)CC5CC5)cc4)C3)CC2)C1 (stereo not drawn) [compound 143, 4-cyclopentyl-4-(1-((1-(4-((cyclopropylmethyl)sulfonyl)phenyl)azetidin-3-yl)methyl)piperidin-4-yl)-2-ethyl-1,2,3,4-tetrahydroisoquinoline]",3.4 ± 0.5 µM,1.2 ± 1 µM,28 nM,,
"CN(C)C(=O)N[C@H]1CCC[C@@H]1C(C#N)(c1ccccc1)C1CCN(CC2CN(c3ccc(S(=O)(=O)c4ccncc4)cc3)C2)CC1 (mixture of isomers) [compound 275, rac-3-((1S,2R)-2-(cyano(phenyl)(1-((1-(4-(pyridin-4-ylsulfonyl)phenyl)azetidin-3-yl)methyl)piperidin-4-yl)methyl)cyclopentyl)-1,1-dimethylurea]",,,12 nM,0.41 µM,0.45 µM
"CN1Cc2ccccc2C(C2CCCC2)(C2CCN(CC3CN(c4ccc(S(=O)(=O)C5CC5)cc4)C3)CC2)C1 (stereo not drawn) [compound 70, 4-cyclopentyl-4-(1-((1-(4-(cyclopropylsulfonyl)phenyl)azetidin-3-yl)methyl)piperidin-4-yl)-2-methyl-1,2,3,4-tetrahydroisoquinoline]",3.5 µM,2.2 µM,12 nM,,
"CNC(=O)N[C@@H]1CCC[C@H]1C1(C2CCN(CC3CN(c4ccc(S(=O)(=O)c5ccncc5)cc4)C3)CC2)CN(C)Cc2ccccc21 (mixture of isomers) [compound 278, rac-1-methyl-3-((1R,2S)-2-(2-methyl-4-(1-((1-(4-(pyridin-4-ylsulfonyl)phenyl)azetidin-3-yl)methyl)piperidin-4-yl)-1,2,3,4-tetrahydroisoquinolin-4-yl)cyclopentyl)urea]",,,296 nM,2.12 µM,2.27 µM
"CCN1Cc2ccccc2C(C2CCCC2)(C2CCN(CC3CN(c4ccc(S(=O)(=O)c5ccncc5C)cc4)C3)CC2)C1 (stereo not drawn) [compound 153, 4-cyclopentyl-2-ethyl-4-(1-((1-(4-((3-methylpyridin-4-yl)sulfonyl)phenyl)azetidin-3-yl)methyl)piperidin-4-yl)-1,2,3,4-tetrahydroisoquinoline]",0.77 µM,0.79 µM,7 nM,,
"N#Cc1ccc(OCCCN2CCC(C3(C4CCCC4)CNCc4ccccc43)CC2)cc1 (stereo not drawn) [compound 19, 4-(3-(4-(4-cyclopentyl-1,2,3,4-tetrahydroisoquinolin-4-yl)piperidin-1-yl)propoxy)benzonitrile]",,,61 nM,7.3 µM,1.6 ± 0.1 µM
"CCN1Cc2ccccc2C(C2CCCC2)(C2CCN(CC3CN(c4ccc(S(=O)(=O)c5ccncc5)cc4)C3)CC2)C1 (stereo not drawn) [Cpd. No. 148, 4-cyclopentyl-2-ethyl-4-(1-((1-(4-(pyridin-4-ylsulfonyl)phenyl)azetidin-3-yl)methyl)piperidin-4-yl)-1,2,3,4-tetrahydroisoquinoline]",1.5 ± 0.9 µM,0.81 ± 0.364 µM,6 nM,,
